Assay results as given in patent US20250092056A1, “URACIL DERIVATIVES HAVING VIRUS REPLICATION INHIBITORY ACTIVITY AND PHARMACEUTICAL COMPOSITION COMPRISING THE SAME” (Shionogi & Co., Ltd., priority 2022, published 2025).
Where two headings read alike, the source gives them in different places.

Tests used:
SARS-CoV-2 = assay: Cytopathic effect (CPE) suppression effect confirmation test using HEK293T/ACE2-TMPRSS2 cells; assay type: cell-based; conditions: Severe acute respiratory syndrome coronavirus 2, HEK-293T
[1] = molecular target: Recombinant SARS-CoV-2 3CL Protease (Severe acute respiratory syndrome coronavirus 2 (2019-nCoV) (SARS-CoV-2), UniProt P0DTD1); assay: biochemical; assay type: biochemical; conditions: 50% SARS-CoV-2 3CL protease inhibitory concentration; read-out: IC50
[2] = 72 h, read-out: EC50 (50% SARS-CoV-2 infected cell death inhibitory concentration), class, HEK293T/ACE2-TMPRSS2 cells, CPE suppression, CellTiter-Glo 2.0 after 3 days culture
[3] = 50% SARS-CoV-2 infected cell death inhibitory concentration, HEK293T/ACE2-TMPRSS2 cells, read-out: EC50
[4] = 72 h, HEK293T/ACE2-TMPRSS2 cells, CPE suppression, CellTiter-Glo 2.0 after 3 days culture, read-out: EC50 (50% SARS-CoV-2 infected cell death inhibitory concentration), class

Row | SMILES | EC50 (SARS-CoV-2; [2]) [nM] | IC50 [1] [nM] | EC50 (SARS-CoV-2; [3]) [nM] | EC50 (SARS-CoV-2; [4]) [nM]
1 | N#CCn1c(N2CC(F)(C3CC3)C2)c(-c2ccc(F)c(Cl)c2)c(=O)n(-c2cncc(Cl)c2)c1=O [Compound I-076] | < 100 | < 10 |  | 
2 | N#CCn1c(N2CC(O)(c3ncccn3)C2)c(-c2ccc(F)c(Cl)c2)c(=O)n(-c2cncc(OCF)n2)c1=O [Compound I-377] |  | < 10 | < 100 | 
3 | N#CCn1c(CCC2(O)CCC2)c(-c2ccc(F)c(C(F)F)c2)c(=O)n(-c2cncc(C#N)c2)c1=O [Compound I-424] |  | < 10 | < 100 | 
4 | N#CCn1c(N2CC3(C2)CC(F)(F)C3)c(-c2ccc(F)c(Cl)c2)c(=O)n(-c2cncc(Br)c2)c1=O [Compound I-361] |  | < 10 | < 100 | 
5 | N#CCn1c(N2CCC(O)(C(F)(F)F)CC2)c(-c2ccc(F)c(Cl)c2)c(=O)n(-c2cncc(Cl)c2)c1=O [Compound I-087] | < 100 | < 10 |  | 
6 | N#CCn1c(N2CC3(CCOC3)C2)c(-c2ccc(F)c(Cl)c2)c(=O)n(-c2cncc(Cl)c2)c1=O [Compound I-181] | < 100 | < 10 |  | 
7 | N#CCn1c(N2CC3(CCOC3)C2)c(Cc2cc(F)c(F)c(F)c2)c(=O)n(-c2cnn3ccccc23)c1=O [Compound I-128] | 100 to 1000 | > 100 |  | 
8 | CN1C[C@@H]2CN(c3c(Cc4cc(F)c(F)c(F)c4)c(=O)n(Cc4ncn(C)n4)c(=O)n3CC#N)C[C@@H]2C1 [Compound I-003] | 1000 to 5000 | > 100 |  | 
9 | Cn1cnc(Cn2c(=O)c(Cc3cc(F)c(F)c(F)c3)c(-c3cc4ccccc4s3)n(CC#N)c2=O)n1 [Compound I-005] | 100 to 1000 | > 100 |  | 
10 | Cc1cc(-n2c(=O)c(-c3ccc(F)c(Cl)c3)c(N3CC4(CCOCC4)C3)n(CC#N)c2=O)cc(=O)[nH]1 [Compound I-161] | 1000 to 5000 | < 10 |  | 
11 | N#CCn1c(N2CC3(CCOC3)C2)c(Cc2cc(F)c(F)c(F)c2)c(=O)n(-c2cnc3ccccn23)c1=O [Compound I-037] |  | 10 to 100 |  | 100 to 1000
12 | Cc1cncc(-n2c(=O)c(Cc3cc(F)c(F)c(F)c3)c(CCCO)n(CC#N)c2=O)c1 [Compound I-052] |  | 10 to 100 |  | < 100
13 | N#CCn1c(N2C[C@@H]3C[C@H]2CO3)c(-c2cc(F)c(F)c(C#N)c2)c(=O)n(-c2cncc(Cl)c2)c1=O [Compound I-370] |  | < 10 | < 100 | 
14 | N#CCn1c(N2CC(c3ncccn3)C2)c(-c2ccc(F)c(Cl)c2)c(=O)n(-c2cncc(Cl)c2)c1=O [Compound I-233] |  | < 10 | < 100 | 
15 | N#CCn1c(N2CC3(CCOC3)C2)c(Cc2cc(F)c(F)c(F)c2)c(=O)n(-c2cncnc2)c1=O [Compound I-007] | 100 to 1000 | > 100 |  | 
16 | Cc1cncc(-n2c(=O)c(-c3ccc(F)c(Cl)c3)c(Cl)n(CC#N)c2=O)c1 [Compound I-015] | 100 to 1000 | < 10 |  | 
17 | Cc1cncc(-n2c(=O)c(-c3ccc(F)c(Cl)c3)c(C3=CCOCC3)n(CC#N)c2=O)c1 [Compound I-211] |  | < 10 | < 100 | 
18 | Cc1cc(-c2c(N3CCC(F)(F)CC3)n(CC#N)c(=O)n(-c3cncc(Cl)c3)c2=O)cs1 [Compound I-328] |  | 10 to 100 | < 100 | 
19 | Cc1cc(-n2c(=O)c(-c3cc(Cl)cc(C(F)(F)F)c3)c(N3CCC(C(F)(F)F)CC3)n(CC#N)c2=O)cc(=O)[nH]1 [Compound I-200] |  | 10 to 100 |  | < 100
20 | Cc1cncc(-n2c(=O)c(-c3ccc(F)c(Cl)c3)c(NS(=O)(=O)c3ccccc3)n(CC#N)c2=O)c1 [Compound I-276] |  | < 10 | < 100 | 
21 | N#CCn1c(N2CC3(C2)CC(F)(F)C3)c(-c2ccc(F)c(Cl)c2)c(=O)n(-c2cncc(I)c2)c1=O [Compound I-363] |  | < 10 | < 100 | 
22 | N#CCn1c(OC2CC(F)(F)C2)c(-c2ccc(F)c(Cl)c2)c(=O)n(-c2cncc(Cl)c2)c1=O [Compound I-245] |  | 10 to 100 | < 100 | 
23 | N#CCn1c(N2CC3(CCOC3)C2)c(Cc2cc(F)c(F)c(F)c2)c(=O)n(-c2cnc3cccnn23)c1=O [Compound I-144] | 100 to 1000 | > 100 |  | 
24 | N#CCn1c(N2CC(OC(F)(F)F)C2)c(-c2ccc(F)c(F)c2)c(=O)n(-c2cncc(Cl)c2)c1=O [Compound I-318] |  | < 10 | < 100 | 
25 | Cc1cncc(-n2c(=O)c(Cc3cc(F)c(F)c(F)c3)c(N3Cc4cn[nH]c4C3)n(CC#N)c2=O)c1 [Compound I-204] | < 100 | < 10 |  | 
26 | N#CCn1c(-c2ccc(C(F)F)nc2)c(-c2ccc(F)c(Cl)c2)c(=O)n(-c2cncc(Cl)c2)c1=O [Compound I-387] |  | < 10 | < 100 | 
27 | CC1(C)[C@@H]2CN(c3c(-c4cccc(Cl)c4)c(=O)n(-c4cncc(Cl)c4)c(=O)n3CC#N)C[C@@H]21 [Compound I-178] | < 100 | < 10 |  | 

Row | SMILES | EC50 (SARS-CoV-2; [2]) [nM] | IC50 [1] [nM] | EC50 (SARS-CoV-2; [3]) [nM] | EC50 (SARS-CoV-2; [4]) [nM]
28 | Cc1cc(-n2c(=O)c(-c3ccc(F)c(Cl)c3)c(N3CCC(C(F)(F)F)CC3)n(CC#N)c2=O)cc(=O)[nH]1 [Compound I-162] |  | 10 to 100 |  | 100 to 1000
29 | Cc1cncc(-n2c(=O)c(Cc3cc(F)c(F)c(F)c3)c(N3CC4(CCOCC4)C3)n(CC#N)c2=O)c1 [Compound I-093] |  | 10 to 100 |  | < 100
30 | C[C@@H](C#N)n1c(N2CC[C@@](O)(C(F)F)C2)c(-c2ccc(F)c(F)c2)c(=O)n(-c2cncc(Cl)c2)c1=O (single isomer, unassigned) [Compound I-419] |  | < 10 | < 100 | 
31 | Cc1cncc(-n2c(=O)c(Cc3cc(F)c(F)c(F)c3)c(N3CCC4(CCC(=O)N4)C3)n(CC#N)c2=O)c1 (racemic) [Compound I-094] |  | 10 to 100 |  | 100 to 1000
32 | N#CCn1c(C2=CCC2)c(-c2ccc(F)c(Cl)c2)c(=O)n(-c2cncc(Cl)c2)c1=O [Compound I-349] |  | 10 to 100 | < 100 | 
33 | N#CCn1c(N2CC(OC(F)(F)F)C2)c(-c2ccc(F)c(Cl)c2)c(=O)n(-c2cncc(C(F)(F)F)n2)c1=O [Compound I-334] |  | < 10 | < 100 | 
34 | N#CCn1c(-c2ccc(C#N)nc2)c(-c2ccc(F)c(Cl)c2)c(=O)n(-c2cncc(Cl)c2)c1=O [Compound I-384] |  | < 10 | < 100 | 
35 | N#CCn1c(N2CC[C@](O)(C(F)F)C2)c(-c2ccc(F)c(Cl)c2)c(=O)n(-c2cncc(C#N)c2)c1=O [Compound I-400] |  | < 10 | < 100 | 
36 | CC(C)NC(=O)c1c(-c2ccc(F)c(Cl)c2)c(=O)n(-c2cncc(Cl)c2)c(=O)n1CC#N [Compound I-406] |  | > 100 | 1000 to 5000 | 
37 | N#CCn1c(N2CC3(CCOC3)C2)c(Cc2cc(F)c(F)c(F)c2)c(=O)n(-c2cncc(Cl)c2)c1=O [Compound I-059] | < 100 | < 10 |  | 
38 | CC(C)(F)CCc1c(-c2ccc(F)c(Cl)c2)c(=O)n(-c2cncc(Cl)c2)c(=O)n1CC#N [Compound I-357] |  | < 10 | < 100 | 
39 | N#CCn1c(N2CC(O)(c3ncccn3)C2)c(-c2ccc(F)c(F)c2)c(=O)n(-c2cncc(Cl)c2)c1=O [Compound I-321] |  | < 10 | < 100 | 
40 | Cc1cc(-n2c(=O)c(-c3ccc(F)c(Cl)c3)c(-c3cc4ccccc4s3)n(CC#N)c2=O)cc(=O)[nH]1 [Compound I-173] | < 100 | < 10 |  | 
41 | Cc1cncc(-n2c(=O)c(Cc3cc(F)c(F)c(F)c3)c(N3CCCC3)n(CC#N)c2=O)c1 [Compound I-203] |  | 10 to 100 |  | < 100
42 | CC1(O)CC2(CN(c3c(-c4ccc(F)c(Cl)c4)c(=O)n(-c4cnc5cc(F)ccn45)c(=O)n3CC#N)C2)C1 [Compound I-137] |  | 10 to 100 |  | 100 to 1000
43 | N#CCn1c(N2C[C@@H]3[C@@H](O)[C@@H]3C2)c(-c2ccc(F)c(Cl)c2)c(=O)n(-c2cncc(Cl)c2)c1=O [Compound I-082] | < 100 | < 10 |  | 
44 | Cc1cc(-n2c(=O)c(-c3ccc(F)c(Cl)c3)c(N3CC4(C3)CC(F)(F)C4)n(CC#N)c2=O)cc(=O)o1 [Compound I-344] |  | 10 to 100 | < 100 | 
45 | Cc1cncc(-n2c(=O)c(-c3ccc(F)c(Cl)c3)c(Oc3ccccc3)n(CC#N)c2=O)c1 [Compound I-280] |  | < 10 | < 100 | 
46 | N#CCn1c(N2CCC(F)(F)CC2)c(-c2cc(O)cc(Cl)c2)c(=O)n(-c2cncc(Cl)c2)c1=O [Compound I-331] |  | < 10 | < 100 | 
47 | Cn1cnc(Cn2c(=O)c(Cc3cc(F)c(F)c(F)c3)c(N3CCc4ccccc4C3)n(CC#N)c2=O)n1 [Compound I-006] | 100 to 1000 | > 100 |  | 
48 | N#CCn1c(N2CC(O)(c3cnccn3)C2)c(-c2ccc(F)c(Cl)c2)c(=O)n(-c2cncc(Cl)c2)c1=O [Compound I-237] |  | < 10 | < 100 | 
49 | N#CCn1c(N2CC[C@@](O)(C(F)F)C2)c(-c2ccc(F)c(Cl)c2)c(=O)n(-c2cncc(C#N)c2)c1=O [Compound I-399] |  | < 10 | < 100 | 
50 | COCC1CN(c2c(-c3ccc(F)c(Cl)c3)c(=O)n(-c3cncc(C(F)F)n3)c(=O)n2CC#N)C1 [Compound I-389] |  | < 10 | < 100 | 
51 | N#CCn1c(N2CC3(C2)CC(F)(F)C3)c(-c2ccc(F)c(Cl)c2)c(=O)n(-c2cncc(F)c2)c1=O [Compound I-231] |  | < 10 | < 100 | 
52 | Cc1cncc(-n2c(=O)c(-c3ccc(F)c(Cl)c3)c(-c3cnc4ccccc4c3)n(CC#N)c2=O)c1 [Compound I-017] | < 100 | < 10 |  | 
53 | CCCOc1cc(Cl)cc(-c2c(N3Cc4ccccc4C3)n(CC#N)c(=O)n(-c3cncc(C)c3)c2=O)c1 [Compound I-041] | < 100 | < 10 |  | 
